For this assay, the target named is PD-L1 His protein / PD-1 Fc protein (Homo sapiens, UniProt Q9NZQ7). The experiment in a line: HTRF Assay (PD-1/PD-L1 interaction). Particulars: PD-L1 His 6 nM, PD-1 Fc 6 nM. The assay is classed as binding. The procedure:
PD-L1 His protein was prepared and added at the final concentration of 6 nM in the White opaque 384 well plate (Corning cat #3824BC). PD-L1 small molecule inhibitors were diluted by 3-fold starting from 20 μM and a final concentration of 0.001 μM and added to the well. PD-1 Fc protein was added at the final concentration of 6 nM. PD-L1 His protein, PD-L1 small molecule inhibitors, and PD1 Fc proteins were added to the well in this order, with each 5 μl volume, and were incubated for 15 minutes at room temperature. PAb anti-Human IgG-XL665 (Cisbio, cat #61HFCXLA) and Mab anti-6HIS Tb cryptate Gold (Cisbio, cat #61HI2TLA) were mixed at 6.7 nM and 0.35 nM respectively, and total 5 μl volume of mixture was added to the well and incubated at room temperature for 1 hour. The plate was read using PerkinElmer Envision plate reader and data was analyzed by Prism 6 software.
For orientation: TR-FRET usually uses a lanthanide donor and a delayed reading to cut background.

Sequence of PD-L1 His protein / PD-1 Fc protein (Q9NZQ7 19-238 limits assumed): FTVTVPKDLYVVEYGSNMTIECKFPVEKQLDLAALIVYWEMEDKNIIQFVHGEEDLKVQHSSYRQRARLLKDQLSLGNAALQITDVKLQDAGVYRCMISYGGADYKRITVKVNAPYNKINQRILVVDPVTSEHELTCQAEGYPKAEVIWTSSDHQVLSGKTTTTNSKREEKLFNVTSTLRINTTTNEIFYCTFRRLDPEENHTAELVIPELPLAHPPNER

Consider `CN1CCC(NCCO)c2ccc(-c3cccc(-c4cccc(-c5ccc6c(n5)N(C)CCC6NCCO)c4Cl)c3Cl)nc21` (mixture of isomers) [Example 34, 2,2′-(((2,2′-Dichloro-[1,1′-biphenyl]-3,3′-diyl)bis(1-methyl-1,2,3,4-tetrahydro-1,8-naphthyridine-7,4-diyl))bis(azanediyl))bis(ethan-1-ol)], for which the 50% inhibitory concentration (IC50) (as a rule, the concentration that inhibits the measured activity by half) came out at 4.8 nM. In turn, `Cc1c(-c2ccn3c(=O)c(CNC[C@@H]4CCC(=O)N4)cnc3c2)cccc1-c1cccc(-c2ccc3c(c2)CC(N)C3)c1Cl` (mixture of isomers) [Example 40, 8-(3′-(2-Amino-2,3-dihydro-1H-inden-5-yl)-2′-chloro-2-methyl-[1,1′-biphenyl]-3-yl)-3-(((((S)-5-oxopyrrolidin-2-yl)methyl)amino)methyl)-4H-pyrido[1,2-a]pyrimidin-4-one] gave an IC50 of 61 nM. Compound `Cc1c(-c2ccc3c(c2)CC(N)C3)cccc1-c1cccc(-c2ccn3c(=O)c(CNC[C@@H]4CCC(=O)N4)cnc3c2)c1C` (mixture of isomers) [Example 41, 8-(3′-(2-Amino-2,3-dihydro-1H-inden-5-yl)-2,2′-dimethyl-[1,1′-biphenyl]-3-yl)-3-(((((S)-5-oxopyrrolidin-2-yl)methyl)amino)methyl)-4H-pyrido[1,2-a]pyrimidin-4-one] showed a 50% inhibitory concentration (IC50) of 93 nM. Compound `Cc1c(-c2ccn3c(=O)c(CNC[C@@H]4CCC(=O)N4)cnc3c2)cccc1-c1cccc(-c2ccc3c(c2)CC(NC(=O)CN)C3)c1Cl` (mixture of isomers) [Example 43, 2-Amino-N-(5-(2-chloro-2′-methyl-3′-(4-oxo-3-(((((S)-5-oxopyrrolidin-2-yl)methyl)amino)methyl)-4H-pyrido[1,2-a]pyrimidin-8-yl)-[1,1′-biphenyl]-3-yl)-2,3-dihydro-1H-inden-2-yl)acetamide] yielded a half-maximal inhibitory concentration (IC50) of 270 nM. This IC50 is about 2.9-fold higher than that of the compound before. The result for `Cc1c(-c2ccn3c(=O)c(CNC[C@@H]4CCC(=O)N4)cnc3c2)cccc1-c1cccc(-c2ccc3c(c2)CC(NC(=O)[C@@H](N)CO)C3)c1Cl` (mixture of isomers) [Example 45, (2S)-2-Amino-N-(5-(2-chloro-2′-methyl-3′-(4-oxo-3-(((((S)-5-oxopyrrolidin-2-yl)methyl)amino)methyl)-4H-pyrido[1,2-a]pyrimidin-8-yl)-[1,1′-biphenyl]-3-yl)-2,3-dihydro-1H-inden-2-yl)-3-hydroxypropanamide] reads 680 nM.

On to `Cc1c(-c2ccn3c(=O)c(CNC[C@@H]4CCC(=O)N4)cnc3c2)cccc1-c1cccc(-c2ccc3c(c2)CC(NC(=O)[C@@H]2CCCN2)C3)c1Cl` (mixture of isomers) [Example 46, (2S)—N-(5-(2-Chloro-2′-methyl-3′-(4-oxo-3-(((((S)-5-oxopyrrolidin-2-yl)methyl)amino)methyl)-4H-pyrido[1,2-a]pyrimidin-8-yl)-[1,1′-biphenyl]-3-yl)-2,3-dihydro-1H-inden-2-yl)pyrrolidine-2-carboxamide], for which 520 nM corresponded to half-maximal inhibition (IC50). As for `COc1nc(-c2cccc(-c3cccc(-c4ccn5c(=O)c(CNC6CNC(=O)C6)cnc5c4)c3Cl)c2Cl)ccc1CNC1CNC(=O)C1` (mixture of isomers) [Example 63, 8-(2,2′-Dichloro-3′-(6-methoxy-5-(((5-oxopyrrolidin-3-yl)amino)methyl)pyridin-2-yl)-[1,1′-biphenyl]-3-yl)-3-(((5-oxopyrrolidin-3-yl)amino)methyl)-4H-pyrido[1,2-a]pyrimidin-4-one], the half-maximal inhibitory concentration (IC50) was 1.5 nM.

Compound `COc1nc(-c2cccc(-c3cccc(-c4ccn5c(=O)c(C6=NCC(C(=O)O)N6)cnc5c4)c3Cl)c2Cl)ccc1CNC[C@@H]1CCC(=O)N1` (mixture of isomers) [Example 179, 2-(8-(2,2′-Dichloro-3′-(6-methoxy-5-(((((S)-5-oxopyrrolidin-2-yl)methyl)amino)methyl)pyridin-2-yl)-[1,1′-biphenyl]-3-yl)-4-oxo-4H-pyrido[1,2-a]pyrimidin-3-yl)-4,5-dihydro-1H-imidazole-5-carboxylic acid] gave a 50% inhibitory concentration (IC50) of 0.1 nM.

`COc1nc(-c2cccc(-c3cccc(-c4ccn5c(=O)c(CNC[C@@H]6CCC(=O)N6)cnc5c4)c3Cl)c2Cl)ccc1C1=NCCC(C(=O)O)N1` (mixture of isomers) [Example 180, 2-(6-(2,2′-Dichloro-3′-(4-oxo-3-(((((S)-5-oxopyrrolidin-2-yl)methyl)amino)methyl)-4H-pyrido[1,2-a]pyrimidin-8-yl)-[1,1′-biphenyl]-3-yl)-2-methoxypyridin-3-yl)-3,4,5,6-tetrahydropyrimidine-4-carboxylic acid] showed an IC50 of 0.9 nM. Against the preceding compound, the IC50 is about 9-fold higher. The result for `COc1nc(-c2cccc(-c3cccc(-c4ccn5c(=O)c(C6=NCCC(C(=O)O)N6)cnc5c4)c3Cl)c2Cl)ccc1CNC[C@@H]1CCC(=O)N1` (mixture of isomers) [Example 199, 2-(8-(2,2′-Dichloro-3′-(6-methoxy-5-(((((S)-5-oxopyrrolidin-2-yl)methyl)amino)methyl)pyridin-2-yl)-[1,1′-biphenyl]-3-yl)-4-oxo-4H-pyrido[1,2-a]pyrimidin-3-yl)-3,4,5,6-tetrahydropyrimidine-4-carboxylic acid] reads 0.1 nM. In the case of `COc1nc(-c2cccc(-c3cccc(-c4ccn5c(=O)c(CNCC6CCCC(=O)N6)cnc5c4)c3Cl)c2Cl)ccc1CNC[C@@H]1CCC(=O)N1` (mixture of isomers) [Example 206, 8-(2,2′-Dichloro-3′-(6-methoxy-5-(((((S)-5-oxopyrrolidin-2-yl)methyl)amino)methyl)pyridin-2-yl)-[1,1′-biphenyl]-3-yl)-3-((((6-oxopiperidin-2-yl)methyl)amino)methyl)-4H-pyrido[1,2-a]pyrimidin-4-one], the IC50 was found to be 14 nM.

`COc1nc(CC2CCc3c(-c4cccc(-c5ccn6c(=O)c(CNC[C@@H]7CCC(=O)N7)cnc6c5)c4Cl)cccc32)c(Cl)cc1CNC[C@@H]1CCC(=O)N1` (mixture of isomers) [Example 213, 8-(2-chloro-3-(1-((3-chloro-6-methoxy-5-(((((S)-5-oxopyrrolidin-2-yl)methyl)amino)methyl)pyridin-2-yl)methyl)-2,3-dihydro-1H-inden-4-yl)phenyl)-3-(((((S)-5-oxopyrrolidin-2-yl)methyl)amino)methyl)-4H-pyrido[1,2-a]pyrimidin-4-one] gave a concentration for half-maximal inhibition (IC50) of 3700 nM.

In turn, `COc1nc(-c2cccc(-c3cccc(-c4ccn5c(=O)c(CNCC6CC(F)(F)C(=O)N6)cnc5c4)c3Cl)c2Cl)ccc1CNC[C@@H]1CCC(=O)N1` (mixture of isomers) [Example 253, 8-[2-Chloro-3-[2-chloro-3-[6-methoxy-5-[[[(2S)-5-oxopyrrolidin-2-yl]methylamino]methyl]-2-pyridyl]phenyl]phenyl]-3-[[(4,4-difluoro-5-oxo-pyrrolidin-2-yl)methylamino]methyl]pyrido[1,2-a]pyrimidin-4-one] returned an IC50 of 5.7 nM. For `COc1nc(-c2cccc(-c3cccc(-c4ccn5c(=O)c(CN6CCC6C(N)=O)cnc5c4)c3Cl)c2Cl)ccc1CNC[C@@H]1CCC(=O)N1` (mixture of isomers) [Example 259, 1-[[8-[2-Chloro-3-[2-chloro-3-[6-methoxy-5-[[[(2S)-5-oxopyrrolidin-2-yl]methylamino]methyl]-2-pyridyl]phenyl]phenyl]-4-oxo-pyrido[1,2-a]pyrimidin-3-yl]methyl]azetidine-2-carboxamide], the 50% inhibitory concentration (IC50) turned out to be 2.3 nM. Regarding `COc1nc(-c2cccc(-c3cccc(-c4ccn5c(=O)c(CNCC(O)C6CC6)cnc5c4)c3Cl)c2Cl)ccc1CNC[C@@H]1CCC(=O)N1` (mixture of isomers) [Example 274, 3-(((2-Cyclopropyl-2-hydroxyethyl)amino)methyl)-8-(2,2′-dichloro-3′-(6-methoxy-5-(((((S)-5-oxopyrrolidin-2-yl)methyl)amino)methyl)pyridin-2-yl)-[1,1′-biphenyl]-3-yl)-4H-pyrido[1,2-a]pyrimidin-4-one], the IC50 was found to be 65 nM. Against the preceding compound, the IC50 is about 28-fold higher.

`COc1nc(-c2cccc(-c3cccc(-c4ccn5c(=O)c(CNCC(C)(O)C6CC6)cnc5c4)c3Cl)c2Cl)ccc1CNC[C@@H]1CCC(=O)N1` (mixture of isomers) [Example 280, 3-(((2-cyclopropyl-2-hydroxypropyl)amino)methyl)-8-(2,2′-dichloro-3′-(6-methoxy-5-(((((S)-5-oxopyrrolidin-2-yl)methyl)amino)methyl)pyridin-2-yl)-[1,1′-biphenyl]-3-yl)-4H-pyrido[1,2-a]pyrimidin-4-one] returned a half-inhibitory concentration (IC50) of 37 nM. In the case of `COc1nc(-c2cccc(-c3cccc(-c4ccc5c(c4)OCCC5NC[C@@H]4CCC(=O)N4)c3Cl)c2Cl)ccc1CNC[C@@H]1CCC(=O)N1` (mixture of isomers) [Example 326, (5S)-5-((((6-(2,2′-Dichloro-3′-(4-((((S)-5-oxopyrrolidin-2-yl)methyl)amino)chroman-7-yl)-[1,1′-biphenyl]-3-yl)-2-methoxypyridin-3-yl)methyl)amino)methyl)pyrrolidin-2-one] it was 24 nM; in that of `COc1nc(-c2cccc(-c3cccc(-c4ccc5c(n4)N(C)CCC5NC[C@@H]4CCC(=O)N4)c3Cl)c2Cl)ccc1CNC[C@@H]1CCC(=O)N1` (mixture of isomers) [Example 51, (5S)-5-(((7-(2,2′-Dichloro-3′-(6-methoxy-5-(((((S)-5-oxopyrrolidin-2-yl)methyl)amino)methyl)pyridin-2-yl)-[1,1′-biphenyl]-3-yl)-1-methyl-1,2,3,4-tetrahydro-1,8-naphthyridin-4-yl)amino)methyl)pyrrolidin-2-one], 2.9 nM.
